For data set [1], the system named is LO2 cell lines (normal liver cell). To be noted: for IC50: read-out: IC50 LO2.
Data set [2] has as its system HepG2 cell lines (liver tumor cell). Nature of the data set: cells. Conditions: Homo sapiens, HepG2, 24 h, read-out: IC50 HepG2.
The subject of a further data set is HeLa. Nature of the data set: cells. To be noted: read-out: IC50 against cell proliferation, HeLa. The data set is classed as cell-based.
For data set [3], the system named is HepG2 cell lines (liver tumor cell). Conditions: for IC50: read-out: IC50 HepG2.
Data set [4] deals with WI38 normal cells. The experiment in a line: cells. To be noted: Homo sapiens, WI-38, read-out: IC50 WI38.
In data set [5] the test system is WI38 normal cells. Conditions: for IC50: read-out: IC50 WI38.
In a further data set the test system is A549. Nature of the data set: cells. It is filed as cell-based.
The subject of data set [6] is LO2 cell lines (normal liver cell). The experiment in a line: cells. Conditions: Homo sapiens, L02, 24 h, read-out: IC50 LO2.
The next data set deals with MCF-7. Nature of the data set: cells. It is filed as cell-based.
Data set [7] is described as follows: H2S release, methylene blue (MB+) method. It is filed as physicochemical. Conditions: MB+ method with TECP or cysteine; different temperature and pH.
Where [8] appears, read: Homo sapiens, A549, read-out: IC50 against cell proliferation, A549.
The mark [9] stands for this setting: Homo sapiens, MCF7, read-out: IC50 against cell proliferation, MCF-7.
[10] abbreviates: read-out: IC50 against cell proliferation, A549.
Where [11] appears, read: read-out: IC50 against cell proliferation, MCF-7.

Structures are written as SMILES. Read-outs that look alike come from different tables or passages of the source.

As for `S=P1(c2ccccc2)NCCO1` (centres unmarked) [Compound S2, 2-phenyl-1,3,2-oxazaphospholidine 2-sulfide], in data set [1], the “Toxicity in words, LO2” value is reported as “low cytotoxicity”. Further, the IC50 in data set [2] was greater than 400 µM; with HeLa (Homo sapiens, HeLa), 736 ± 22.1 µM; in the data set on WI38 normal cells [4], greater than 200 µM; in the data set with A549 (setting [8]) it was 650 ± 32.5 µM; in data set [6], greater than 200 µM; with MCF-7 (setting [9]), 455 ± 3.2 µM. For the same molecule, the “Toxicity in words, HepG2” value in data set [3] is reported as “low cytotoxicity”. For the same molecule, the “Toxicity in words, WI38” value in the data set with WI38 normal cells [5] is reported as “low cytotoxicity”.

Regarding `S=P1(c2ccccc2)NCCCO1` (centres unmarked) [Compound S3, 2-phenyl-1,3,2-oxazaphosphinane 2-sulfide], the “Toxicity in words, LO2” value in data set [1] is listed as “low cytotoxicity”. Besides, the IC50 is greater than 400 µM in data set [2]; 826 ± 17.1 µM with HeLa (Homo sapiens, HeLa); greater than 200 µM with WI38 normal cells [4]; 700 ± 32.3 µM with A549 (setting [8]); greater than 200 µM in data set [6]; 470 ± 4.1 µM in the data set on MCF-7 (setting [9]). Also, the “Toxicity in words, HepG2” value in data set [3] is on record as “low cytotoxicity”. Besides, the “Toxicity in words, WI38” value in the data set on WI38 normal cells [5] is “low cytotoxicity”.

As to `S=P1(c2ccccc2)NCCCCO1` (centres unmarked) [Compound S4, 2-phenyl-1,3,2-oxazaphosphepane 2-sulfide], in [1], the “Toxicity in words, LO2” value is “low cytotoxicity”. In addition, the IC50 is greater than 400 µM in data set [2]; 836 ± 19.7 µM in the data set on HeLa (Homo sapiens, HeLa); greater than 200 µM in the data set with WI38 normal cells [4]; 720 ± 22.4 µM with A549 (setting [8]); greater than 200 µM in [6]; 472 ± 3.3 µM with MCF-7 (setting [9]). For the same molecule, the “Toxicity in words, HepG2” value in data set [3] is “low cytotoxicity”. For the same molecule, in the data set with WI38 normal cells [5], the “Toxicity in words, WI38” value is recorded as “low cytotoxicity”.

Regarding `S=P1(c2ccccc2)NCCCCCO1` (centres unmarked) [Compound S5, 2-phenyl-1,3,2-oxazaphosphocane 2-sulfide], in [1], the “Toxicity in words, LO2” value is listed as “low cytotoxicity”. The IC50 in data set [2] is greater than 400 µM; with HeLa (Homo sapiens, HeLa), 622 ± 20.6 µM; in the data set on WI38 normal cells [4], greater than 200 µM; in the data set on A549 (setting [8]), 680 ± 20.5 µM; in data set [6], greater than 200 µM; in the data set with MCF-7 (setting [9]), 468 ± 3.4 µM. The “Toxicity in words, HepG2” value in data set [3] is listed as “low cytotoxicity”. Besides, the “Toxicity in words, WI38” value in the data set on WI38 normal cells [5] was “low cytotoxicity”.

As to `S=P1(c2ccccc2)NCCCCCCO1` (centres unmarked) [Compound S6, 2-phenyl-1,3,2-oxazaphosphonane 2-sulfide], the “Toxicity in words, LO2” value in data set [1] is on record as “low cytotoxicity”. The IC50 in data set [2] is greater than 400 µM; in the data set on HeLa (Homo sapiens, HeLa), 645 ± 15.5 µM; in the data set with WI38 normal cells [4], greater than 200 µM; with A549 (setting [8]) it was 710 ± 22.6 µM; in data set [6], greater than 200 µM; with MCF-7 (setting [9]) it was 471 ± 5.4 µM. Besides, in data set [3], the “Toxicity in words, HepG2” value was “low cytotoxicity”. Besides, in the data set with WI38 normal cells [5], the “Toxicity in words, WI38” value is recorded as “low cytotoxicity”.

Take `S=P1(c2ccccc2)NCCCCN1` [Compound S7, 2-phenyl-1,3,2-diazaphosphepane 2-sulfide]: the “Toxicity in words, LO2” value in data set [1] is on record as “low cytotoxicity”. In addition, the IC50 was greater than 400 µM in [2]; 655 ± 15.3 µM with HeLa (Homo sapiens, HeLa); greater than 200 µM in the data set with WI38 normal cells [4]; 730 ± 32.3 µM in the data set with A549 (setting [8]); greater than 200 µM in [6]; 473 ± 4.2 µM in the data set with MCF-7 (setting [9]). Moreover, the “Toxicity in words, HepG2” value in data set [3] is on record as “low cytotoxicity”. Moreover, the “Toxicity in words, WI38” value in the data set with WI38 normal cells [5] is recorded as “low cytotoxicity”.

Consider `S=P1(c2ccccc2)OCCCCO1` [Compound S8, 2-phenyl-1,3,2-dioxaphosphepane 2-sulfide], for which the “Toxicity in words, LO2” value in data set [1] is recorded as “low cytotoxicity”. Moreover, the IC50 is greater than 200 µM in [1]; 730 ± 20.5 µM in the data set on HeLa; greater than 400 µM in data set [3]; greater than 200 µM with WI38 normal cells [5]; 803 ± 20.8 µM in the data set on A549 (setting [10]); 480 ± 3.8 µM with MCF-7 (setting [11]). Moreover, the “Toxicity in words, HepG2” value in [3] is “low cytotoxicity”. The “Toxicity in words, WI38” value with WI38 normal cells [5] is “low cytotoxicity”.

With `S=P1(c2ccccc2)NCNCN1` [Compound S9, 2-phenyl-1,3,5,2-triazaphosphinane 2-sulfide], the “Toxicity in words, LO2” value in data set [1] is “low cytotoxicity”. The IC50 in data set [2] is greater than 400 µM; with HeLa (Homo sapiens, HeLa), 730 ± 20.7 µM; with WI38 normal cells [4], greater than 200 µM; with A549 (setting [8]), 590 ± 27.1 µM; in data set [6], greater than 200 µM; in the data set on MCF-7 (setting [9]) it was 459 ± 3.7 µM. Also, the “Toxicity in words, HepG2” value in data set [3] is “low cytotoxicity”. Moreover, the “Toxicity in words, WI38” value in the data set on WI38 normal cells [5] was “low cytotoxicity”.

For the molecule `S=P1(c2ccccc2)SCCS1` [Compound S10, 2-phenyl-1,3,2-dithiaphospholane 2-sulfide], the “Toxicity in words, LO2” value in data set [1] is recorded as “low cytotoxicity”. In addition, the IC50 in [2] was greater than 400 µM; in the data set with HeLa (Homo sapiens, HeLa) it was 603 ± 20.8 µM; with WI38 normal cells [4], greater than 200 µM; with A549 (setting [8]), 557 ± 18.5 µM; in [6], greater than 200 µM; in the data set with MCF-7 (setting [9]), 455 ± 2.4 µM. Also, the “Toxicity in words, HepG2” value in data set [3] is given as “low cytotoxicity”. For the same molecule, the “Toxicity in words, WI38” value with WI38 normal cells [5] is reported as “low cytotoxicity”.

For the molecule `S=P1(c2ccccc2)Oc2ccccc2-c2ccccc2O1` [Compound S12, 6-phenyldibenzo [d, f][1,3,2] dioxaphosphepine 6-sulfide], the “Toxicity in words, LO2” value in data set [1] is “low cytotoxicity”. Further, the IC50 in [2] is greater than 400 µM; with HeLa (Homo sapiens, HeLa), 703 ± 17.7 µM; in the data set with WI38 normal cells [4], greater than 200 µM; with A549 (setting [8]) it was 640 ± 15.5 µM; in data set [6] it was greater than 200 µM; in the data set on MCF-7 (setting [9]), 164 ± 4.1 µM. Further, the “Toxicity in words, HepG2” value in data set [3] is on record as “low cytotoxicity”. In addition, the “Toxicity in words, WI38” value in the data set on WI38 normal cells [5] is reported as “low cytotoxicity”.

As for `S=P1(c2ccccc2)OCc2ccccc2CO1` [Compound S13, 3-phenyl-1,5-dihydrobenzo [e] [1,3,2] dioxaphosphepine 3-sulfide], the “Toxicity in words, LO2” value in data set [1] is listed as “low cytotoxicity”. In addition, the IC50 was greater than 400 µM in [2]; 633 ± 18.3 µM with HeLa (Homo sapiens, HeLa); greater than 200 µM with WI38 normal cells [4]; 500 ± 18.2 µM in the data set with A549 (setting [8]); greater than 200 µM in data set [6]; 460 ± 3.5 µM in the data set on MCF-7 (setting [9]). In data set [3], the “Toxicity in words, HepG2” value was “low cytotoxicity”. For the same molecule, the “Toxicity in words, WI38” value in the data set with WI38 normal cells [5] was “low cytotoxicity”.

As for `Cc1ccc2c(c1)NP(=S)(c1ccccc1)O2` (centres unmarked) [Compound S14, 5-methyl-2-phenyl-3H benzo [d][1,3,2] oxazaphosphole 2-sulfide], the IC50 in [1] is greater than 200 µM; in the data set with HeLa it was 530 ± 11.3 µM; in data set [3], greater than 400 µM; in the data set on WI38 normal cells [5], greater than 200 µM; with A549 (setting [10]), 220 ± 20.1 µM; in the data set with MCF-7 (setting [11]), 31 ± 2.5 µM. Also, the “H2S release amount (in words)” value in [7] is listed as “the highest amount of hydrogen sulfide was released”.

As for `S=P1(c2ccccc2)Oc2ccc3cccc4c5cccc6ccc(c(c2c34)c65)O1` [Compound S15, 2-phenylperyleno [1,12-def][1,3,2] dioxaphosphepine 2-sulfide], the IC50 in data set [2] was greater than 400 µM; in the data set on HeLa (Homo sapiens, HeLa), 733 ± 28.2 µM; in the data set with WI38 normal cells [4] it was greater than 200 µM; in the data set with A549 (setting [8]), 520 ± 22.7 µM; in [6], greater than 200 µM; in the data set on MCF-7 (setting [9]), 266 ± 3.5 µM.

`N#Cc1ccc2c(c1)NP(=S)(c1ccccc1)O2` (centres unmarked) [Compound S16, 2-phenyl-3H-benzo [d][1,3,2] oxazaphosphole-5-carbonitrile 2-sulfide]: the IC50 in [1] is greater than 200 µM; with HeLa it was 520 ± 20.3 µM; in data set [3], greater than 400 µM; in the data set on WI38 normal cells [5] it was greater than 200 µM; in the data set with A549 (setting [10]) it was 280 ± 28.3 µM; in the data set with MCF-7 (setting [11]), 28 ± 2.7 µM. Besides, in [7], the “H2S release amount (in words)” value is given as “the highest amount of hydrogen sulfide was released”.

Values taken from publication PMC11790660 (Frontiers in Chemistry, 2025).
